This assay addresses mushroom tyrosinase. Nature of the assay: Mushroom tyrosinase inhibition assay (whitening effect). Format: biochemical. The settings on record: mushroom tyrosinase 1000 units/mL, L-tyrosine, pH 6.5, 25° C. for 30 minutes, absorbance at 490 nm.

Converted amounts (≈) assume the structure as drawn.

Procedure: Then, the absorbance was recorded at 490 nm by a microplate reader to determine the amount of dopachrome generated. […] The expression of the percentage of tyrosinase activity inhibition is as follows.
Tyrosinase activity inhibitory effect (%)=(1−(A−B)/C)×100 [Equation] • A: Absorbance of sample • B: Absorbance of color control • C: Absorbance of control

Consider `OC[C@H]1O[C@@H](Oc2ccc(O)cc2)[C@H](O)[C@@H](O)[C@@H]1O` [Arbutin], for which the “IC50 (tyrosinase activity inhibition)” value worked out at 630.1 µg/mL (≈ 2310 µM).
